Tested on: Male Fischer 344 rats
Assay: Penile Erection in Rat
Type: in vivo
Settings: male Fischer 344 rats (n=7), observed for 60 minutes, mean number
Protocol: (This test was carried out according to a similar manner to that described in Jpn. J. Pharmacol., Vol. 64, 147-153 (1994))
Male Fischer 344 rats at the age of 8 weeks (n=7) were used. All rats were handled 3 minutes a day for three successive days before the tests. The rats were tested in groups of seven and various doses of the test compound were given in semi-randomized order. The test compounds were suspended in 0.5% methyl-cellulose immediately before use, and given intraperitoneally in a volume of 1 ml/kg just before the start of test. […] A mirror was situated behind each box […]. Data was expressed as a mean number.

SMILES	Penile Erection (dose 1 mg/kg intraperitoneally) [number/hr]	Penile Erection (dose 0.32 mg/kg intraperitoneally) [number/hr]
CC(=O)N1CCN(C(=O)Nc2ccc(F)cc2)CC1 [Example 2, 1-acetyl-4-(4-fluorophenylcarbamoyl)piperazine]	1.14	–
O=C(NC1CCN(C(=O)C2CC2)CC1)c1ccc(F)cc1 [Example 19, N-(1-cyclopropylcarbonylpiperidin-4-yl)-4-fluorobenzamide]	–	0.75

Reference: patent publication US6710043B1, “Amide compounds” (Fujisawa Pharmaceutical Co., Ltd., priority 1999, dated 2004)
